According to patent publication US9822414B2, “In vitro method for predicting in vivo genotoxicity of chemical compounds” (priority 2011, dated 2017):
“And” between values parts separate entries of the source, which are not always exact repeats. Identical values can stand only once. Like-named read-outs stand apart in the source and are kept apart here.

Assays:
[1] = tested on: HepG2 cell; test: Class prediction of in vivo genotoxicity by the method of the invention (Ames stratification plus three-gene expression in HepG2); details: 62 compounds, three replicates, HepG2 24 h
[2] = tested on: Salmonella typhimurium; details: cited from earlier work
[3] = tested on: PNMA6A; test: Gene expression of PNMA6A in HepG2 cells exposed to compound (microarray, log2 treatment:control ratio); assay type: cell-based, human; details: HepG2 cells; for Log2 treatment: control ratio PNMA6A: 24 h exposure, Ames negative compounds, one line per replicate of triplicate experiments; for PNMA6A: expression versus reference value, single measurement of three
[4] = tested on: conventional in vitro genotoxicity assays; details: cited from earlier work
[5] = tested on: C10orf65/HOGA1; test: Gene expression of C10orf65/HOGA1 in HepG2 cells exposed to compound (microarray, log2 treatment:control ratio); assay type: cell-based, human; details: for Log2 treatment: control ratio C10orf65/HOGA1: 24 h exposure, Ames negative compounds, one line per replicate of triplicate experiments; for C10orf65/HOGA1: expression versus reference value, single measurement of three
[6] = tested on: rodents; details: cited from earlier work
[7] = tested on: SLC40A1; test: Gene expression of SLC40A1 in HepG2 cells exposed to compound (microarray, log2 treatment:control ratio); assay type: cell-based, human; details: HepG2 cells; for Log2 treatment: control ratio SLC40A1: 24 h exposure, Ames negative compounds, one line per replicate of triplicate experiments; for SLC40A1: expression versus reference value, single measurement of three
[8] = tested on: HepG2 cell
[9] = standard in vivo genotoxicity designation

Structure (SMILES) | Prediction (class prediction results using the method of the invention) [1] | Ames [2] | Log2 treatment: control ratio PNMA6A [3] | In vitro GTX [4] | Log2 treatment: control ratio C10orf65/HOGA1 [5] | C10orf65/HOGA1 [5] | Log2 treatment: control ratio SLC40A1 [7] | SLC40A1 [7] | PNMA6A [3] | At least ⅔ genes +? [8] | Average result over three measurements [8] | Prediction (class prediction results using the method of the invention) [8] | In vivo GTX ([6]; in vivo) | Standard ([6]; in vivo) | Ames ([2]; Ames results based on NTP data) | also measured
CC1=CC(=O)[N-]S(=O)(=O)O1.[K+] [ASK] | NGTX | − | 0.264 and 0.161 and −0.677 | − | 0.014 and −0.015 and 0.083 | − (below the reference value) | −0.348 and −0.221 and 0.08 | − (below the reference value) |  |  |  |  |  |  |  | Standard [6, 9]: NGTX
Nc1ccccc1C(=O)O [AnAc] | NGTX | − |  | + |  | − (below the reference value) |  | − (below the reference value) |  |  |  |  |  |  |  | Log2 treatment: control ratio PNMA6A ([3]; listed as AA): 0.167 and −0.628 and 0.562; Log2 treatment: control ratio C10orf65/HOGA1 ([5]; listed as AA): −0.045 and −0.061 and 0.002; Standard [6, 9]: NGTX; Log2 treatment: control ratio SLC40A1 ([7]; listed as AA): −0.174 and −0.49 and 0.007
ClC(Cl)Br [BDCM] |  | − | 0.22 and −0.289 and −0.185 | + | 0.113 and 0.258 and 0.086 |  | −0.891 and −0.178 and −0.017 | − (below the reference value) | − (below the reference value) | NGTX | NGTX | NGTX | − | NGTX |  | 
O=C1CCCCCN1 [CAP] |  |  | 0.312 and −0.168 and −0.165 | − | 0.203 and 0.223 and 0.138 |  | −0.607 and −0.032 and 0.265 | − (below the reference value) |  |  | NGTX | NGTX+ | − | NGTX | − | 
ClC(Cl)(Cl)Cl [CCl4] |  | − | 0.412 and −0.425 and −0.14 | + | 0.361 and 0.073 and −0.083 |  | −0.888 and −0.041 and −0.185 |  |  |  |  | NGTX+ | − |  |  | 
O=c1ccc2ccccc2o1 [Cou] |  |  | 0.073 and 0.081 | − | −0.481 and −0.483 | − (below the reference value) | −0.215 and −0.309 | − (below the reference value) | − (below the reference value) | NGTX | NGTX | NGTX | − | NGTX | − | Log2 treatment: control ratio PNMA6A ([3]; listed as COU): 0.14; Log2 treatment: control ratio C10orf65/HOGA1 ([5]; listed as COU): −0.069; Log2 treatment: control ratio SLC40A1 ([7]; listed as COU): −0.104
COc1cc(/C=C/C(=O)CC(=O)/C=C/c2ccc(O)c(OC)c2)ccc1O [Cur] |  |  | −0.138 and −0.135 and 0.263 | + | 0.113 and 0.028 and −0.293 | − (below the reference value) | 0.174 and 0.252 and 0.253 | − (below the reference value) |  | NGTX | NGTX | NGTX | − | NGTX | − | 
Clc1ccc(C(c2ccc(Cl)cc2)C(Cl)(Cl)Cl)cc1 [DDT] | NGTX | − | −0.223 and 0.118 and −0.515 | − | −0.925 and 0.469 and −0.025 |  | 0.685 and 0.118 and 0.493 |  | − (below the reference value) |  |  |  |  |  |  | Standard [6, 9]: NGTX
CCCCC(CC)COC(=O)c1ccccc1C(=O)OCC(CC)CCCC (centres unmarked) [DEHP] |  | − |  | − |  | − (below the reference value) |  | − (below the reference value) | − (below the reference value) | NGTX | NGTX | NGTX |  | NGTX |  | Log2 treatment: control ratio PNMA6A ([3]; listed as DEPH): −0.264 and −0.841 and −0.034; Log2 treatment: control ratio SLC40A1 ([7]; listed as DEPH): 0.249 and −0.387 and 0.234
CC/C(=C(/CC)c1ccc(O)cc1)c1ccc(O)cc1 [DES] |  |  | 0.286 and 0.203 and 0.135 | + | 0.146 and 0.516 and 0.206 | + (above the reference value) | 1.504 and 0.717 and 0.723 | + (above the reference value) |  | GTX | GTX | GTX | + | GTX | − | 
CCOP(=S)(OCC)Oc1cc(C)nc(C(C)C)n1 [DZN] | NGTX | − | −0.352 and −0.624 and −0.03 | − | −1.12 and −0.738 and −1.077 | − (below the reference value) | 0.569 and 0.773 and 1.44 | + (above the reference value) | − (below the reference value) |  |  |  |  |  |  | Standard [6, 9]: NGTX
OC[C@@H](O)[C@@H](O)[C@H](O)[C@H](O)CO [Dman] | NGTX | − | −0.035 and 0.459 and 0.01 | − | 0.022 and −0.159 and 0.023 | − (below the reference value) | 0.005 and −0.155 and −0.035 | − (below the reference value) |  |  |  |  |  |  |  | Standard [6, 9]: NGTX
C[C@]12CC[C@@H]3c4ccc(O)cc4CC[C@H]3[C@@H]1CC[C@@H]2O [E2, Estradiol] | NGTX |  |  |  |  |  |  | − (below the reference value) | − (below the reference value) |  |  |  |  |  |  | 
C=CCc1ccc(O)c(OC)c1 [EuG] |  |  | 0.39 and 0.124 and 0.031 | + | −0.156 and 0.3 and −0.066 |  | 0.161 and 0.712 and 0.293 |  |  |  | NGTX | NGTX+ | − | NGTX | − | 
COC(=O)[C@H]1[C@H]2C[C@@H]3c4[nH]c5cc(OC)ccc5c4CCN3C[C@H]2C[C@@H](OC(=O)c2cc(OC)c(OC)c(OC)c2)[C@@H]1OC [Res] |  |  | 0.09 and −0.624 and 0.288 | − | 0.047 and 6.45E−05 and −0.043 | − (below the reference value) | 0.398 and −0.212 and −0.057 |  |  | NGTX | NGTX | NGTX | − | NGTX | − | 
CCNc1nc(Cl)nc(NCC)n1 [Sim] |  |  | 0.246 and 0.186 and 0.202 | − | 0.22 and 0.14 and 0.155 |  | −0.601 and −0.1 and −0.245 | − (below the reference value) | − (below the reference value) | NGTX | NGTX | NGTX | − | NGTX | − | Classification of NGTX compounds by the method of the invention (false positives) [8]: misclassification
Cc1cccc(Nc2cc(Cl)nc(SCC(=O)O)n2)c1C [WY] |  |  | 0.059 and −0.515 and 1.157 | − | −0.061 and −0.158 and −0.053 | − (below the reference value) | −0.312 and −0.393 and −0.643 | − (below the reference value) |  | NGTX | NGTX | NGTX | − | NGTX | − | 
